Reference: ChEMBL document CHEMBL4043275, “Design, synthesis and biological evaluation of phthalimide-alkylamine derivatives as balanced multifunctional cholinesterase and monoamine oxidase-B inhibitors for the treatment of Alzheimer's disease” (Bioorg Med Chem Lett, 2017)

What was measured:
Acetylcholinesterase [1] = biological target: T1, Acetylcholinesterase (Rattus norvegicus, UniProt P37136); assay: Inhibition of rat cortex homogenate AChE using acetylthiocholine chloride as substrate incubated for 15 mins by Ellman's method
T1 sequence (P37136 whole entry): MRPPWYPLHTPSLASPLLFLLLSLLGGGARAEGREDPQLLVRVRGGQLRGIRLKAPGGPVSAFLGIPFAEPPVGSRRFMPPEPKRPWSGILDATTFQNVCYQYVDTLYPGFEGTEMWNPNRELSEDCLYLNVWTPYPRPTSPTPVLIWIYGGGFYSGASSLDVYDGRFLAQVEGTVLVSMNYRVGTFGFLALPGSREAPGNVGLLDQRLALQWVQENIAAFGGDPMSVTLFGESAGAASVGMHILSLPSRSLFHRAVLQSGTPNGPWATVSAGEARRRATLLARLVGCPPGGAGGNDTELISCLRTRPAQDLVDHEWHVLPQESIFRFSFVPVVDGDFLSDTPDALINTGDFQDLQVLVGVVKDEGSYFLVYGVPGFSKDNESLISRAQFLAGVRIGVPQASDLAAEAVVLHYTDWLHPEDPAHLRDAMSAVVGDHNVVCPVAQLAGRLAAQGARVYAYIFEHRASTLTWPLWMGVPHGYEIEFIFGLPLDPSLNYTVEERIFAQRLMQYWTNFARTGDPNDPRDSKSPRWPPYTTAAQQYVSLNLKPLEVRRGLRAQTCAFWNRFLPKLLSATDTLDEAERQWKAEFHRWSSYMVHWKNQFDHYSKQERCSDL

[2] = biological target: T2, Amine oxidase [flavin-containing] B (Homo sapiens, UniProt P27338); assay: Inhibition of human recombinant MAO-B expressed in baculovirus infected BTI insect cells using kynuramine as substrate after 30 mins by fluorescence assay; format: cell-based
T2 sequence (P27338 whole entry): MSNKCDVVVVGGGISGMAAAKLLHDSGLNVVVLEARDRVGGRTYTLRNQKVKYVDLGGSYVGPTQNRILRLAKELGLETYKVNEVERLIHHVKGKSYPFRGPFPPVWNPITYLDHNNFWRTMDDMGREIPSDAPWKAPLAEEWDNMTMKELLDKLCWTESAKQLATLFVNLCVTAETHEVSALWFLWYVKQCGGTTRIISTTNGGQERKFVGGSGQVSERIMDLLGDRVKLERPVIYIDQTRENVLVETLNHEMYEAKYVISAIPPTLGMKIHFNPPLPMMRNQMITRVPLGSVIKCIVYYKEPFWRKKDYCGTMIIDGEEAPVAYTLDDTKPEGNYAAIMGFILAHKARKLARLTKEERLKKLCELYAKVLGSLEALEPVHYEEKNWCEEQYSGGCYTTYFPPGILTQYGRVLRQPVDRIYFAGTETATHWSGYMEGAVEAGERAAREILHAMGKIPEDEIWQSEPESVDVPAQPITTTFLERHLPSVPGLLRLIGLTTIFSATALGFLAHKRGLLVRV

Butyrylcholinesterase = Butyrylcholinesterase (Rattus norvegicus, UniProt Q9JKC1); assay: Inhibition of rat serum BChE using butyrylthiocholine chloride as substrate incubated for 15 mins by Ellman's method
[3] = biological target: T3, Amine oxidase [flavin-containing] A (Homo sapiens, UniProt P21397); assay: Inhibition of human recombinant MAO-A expressed in baculovirus infected BTI insect cells at 20 uM using kynuramine as substrate after 30 mins by fluorescence assay relative to control; conditions: 0.5 h
T3 sequence (P21397 whole entry): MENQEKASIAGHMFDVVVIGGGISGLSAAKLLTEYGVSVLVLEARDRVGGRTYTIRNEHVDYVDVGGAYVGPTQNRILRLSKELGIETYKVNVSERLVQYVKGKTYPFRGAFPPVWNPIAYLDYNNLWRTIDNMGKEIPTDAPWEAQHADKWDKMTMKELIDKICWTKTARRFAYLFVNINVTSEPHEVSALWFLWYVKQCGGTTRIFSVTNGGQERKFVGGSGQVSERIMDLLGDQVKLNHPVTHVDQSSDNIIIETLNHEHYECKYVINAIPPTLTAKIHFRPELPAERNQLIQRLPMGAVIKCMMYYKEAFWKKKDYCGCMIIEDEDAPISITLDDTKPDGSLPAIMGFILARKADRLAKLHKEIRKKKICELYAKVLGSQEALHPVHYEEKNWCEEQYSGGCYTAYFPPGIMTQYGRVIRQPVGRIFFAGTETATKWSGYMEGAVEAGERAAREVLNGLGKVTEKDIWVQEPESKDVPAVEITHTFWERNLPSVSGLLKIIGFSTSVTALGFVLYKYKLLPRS

[4] = Selectivity index, ratio of IC50 for equine serum BChE to IC50 for electric eel AChE
Cholinesterase [5] = biological target: Cholinesterase (Homo sapiens, UniProt P06276); assay: Inhibition of human serum BChE using butyrylthiocholine chloride as substrate incubated for 15 mins by Ellman's method
Acetylcholinesterase [6] = biological target: Acetylcholinesterase (Homo sapiens, UniProt P22303); assay: Inhibition of human erythrocyte AChE using acetylthiocholine chloride as substrate incubated for 15 mins by Ellman's method
Cholinesterase [7] = biological target: Cholinesterase (Equus caballus, UniProt P81908); assay: Inhibition of equine serum BChE using butyrylthiocholine chloride as substrate incubated for 15 mins by Ellman's method
Acetylcholinesterase [8] = biological target: Acetylcholinesterase (Electrophorus electricus, UniProt O42275); assay: Inhibition of electric eel AChE using acetylthiocholine chloride as substrate incubated for 15 mins by Ellman's method
Acetylcholinesterase (Electrophorus electricus, UniProt O42275), sequence (O42275 whole entry): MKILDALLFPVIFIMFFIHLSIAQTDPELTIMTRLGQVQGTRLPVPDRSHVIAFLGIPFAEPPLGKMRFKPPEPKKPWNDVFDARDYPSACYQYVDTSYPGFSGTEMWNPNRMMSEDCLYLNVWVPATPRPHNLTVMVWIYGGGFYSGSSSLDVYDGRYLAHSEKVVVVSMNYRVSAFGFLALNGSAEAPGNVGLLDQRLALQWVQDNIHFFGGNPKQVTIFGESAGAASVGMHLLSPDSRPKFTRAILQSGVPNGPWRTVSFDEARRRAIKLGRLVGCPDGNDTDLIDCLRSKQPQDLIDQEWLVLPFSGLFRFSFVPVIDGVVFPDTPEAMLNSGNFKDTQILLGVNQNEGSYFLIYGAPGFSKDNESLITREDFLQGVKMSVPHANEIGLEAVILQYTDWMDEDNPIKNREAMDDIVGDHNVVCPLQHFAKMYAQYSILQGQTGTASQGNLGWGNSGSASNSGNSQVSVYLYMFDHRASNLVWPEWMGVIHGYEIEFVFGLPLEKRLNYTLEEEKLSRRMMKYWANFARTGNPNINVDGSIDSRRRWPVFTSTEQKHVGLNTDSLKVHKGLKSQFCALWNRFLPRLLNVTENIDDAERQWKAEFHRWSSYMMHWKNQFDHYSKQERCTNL

Cholinesterase (Homo sapiens, UniProt P06276), sequence (P06276 whole entry): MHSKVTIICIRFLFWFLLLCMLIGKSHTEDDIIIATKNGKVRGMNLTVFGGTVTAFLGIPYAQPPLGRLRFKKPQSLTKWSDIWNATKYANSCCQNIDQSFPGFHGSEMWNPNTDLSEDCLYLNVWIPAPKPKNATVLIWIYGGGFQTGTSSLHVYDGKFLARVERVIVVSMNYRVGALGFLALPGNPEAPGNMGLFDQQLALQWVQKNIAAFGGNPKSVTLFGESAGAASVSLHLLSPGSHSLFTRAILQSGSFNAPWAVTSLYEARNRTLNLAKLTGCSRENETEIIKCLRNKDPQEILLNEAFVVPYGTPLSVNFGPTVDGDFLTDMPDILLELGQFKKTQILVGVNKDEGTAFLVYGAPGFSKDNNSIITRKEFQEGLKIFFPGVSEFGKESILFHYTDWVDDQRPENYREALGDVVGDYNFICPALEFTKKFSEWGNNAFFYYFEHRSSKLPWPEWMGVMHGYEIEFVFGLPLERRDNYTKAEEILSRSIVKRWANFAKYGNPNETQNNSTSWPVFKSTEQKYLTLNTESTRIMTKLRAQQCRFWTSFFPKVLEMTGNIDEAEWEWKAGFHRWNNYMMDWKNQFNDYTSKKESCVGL
Acetylcholinesterase (Homo sapiens, UniProt P22303), sequence (P22303 whole entry): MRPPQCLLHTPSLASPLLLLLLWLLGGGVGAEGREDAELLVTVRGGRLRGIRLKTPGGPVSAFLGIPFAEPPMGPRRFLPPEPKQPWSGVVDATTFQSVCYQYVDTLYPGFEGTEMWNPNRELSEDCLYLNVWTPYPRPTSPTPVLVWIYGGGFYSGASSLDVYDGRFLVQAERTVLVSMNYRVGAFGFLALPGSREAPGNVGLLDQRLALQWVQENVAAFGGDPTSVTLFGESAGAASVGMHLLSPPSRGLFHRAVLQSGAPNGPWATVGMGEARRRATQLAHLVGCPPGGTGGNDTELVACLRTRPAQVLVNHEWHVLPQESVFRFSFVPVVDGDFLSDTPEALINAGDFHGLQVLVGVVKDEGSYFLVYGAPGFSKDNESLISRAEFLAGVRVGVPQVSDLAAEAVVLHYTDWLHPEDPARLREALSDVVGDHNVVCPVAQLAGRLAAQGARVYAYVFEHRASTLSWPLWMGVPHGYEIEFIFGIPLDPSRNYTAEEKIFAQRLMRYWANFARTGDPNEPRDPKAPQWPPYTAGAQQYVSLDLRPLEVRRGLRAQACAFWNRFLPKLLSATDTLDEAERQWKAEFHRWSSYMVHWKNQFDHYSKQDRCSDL
Butyrylcholinesterase, sequence (Q9JKC1 whole entry): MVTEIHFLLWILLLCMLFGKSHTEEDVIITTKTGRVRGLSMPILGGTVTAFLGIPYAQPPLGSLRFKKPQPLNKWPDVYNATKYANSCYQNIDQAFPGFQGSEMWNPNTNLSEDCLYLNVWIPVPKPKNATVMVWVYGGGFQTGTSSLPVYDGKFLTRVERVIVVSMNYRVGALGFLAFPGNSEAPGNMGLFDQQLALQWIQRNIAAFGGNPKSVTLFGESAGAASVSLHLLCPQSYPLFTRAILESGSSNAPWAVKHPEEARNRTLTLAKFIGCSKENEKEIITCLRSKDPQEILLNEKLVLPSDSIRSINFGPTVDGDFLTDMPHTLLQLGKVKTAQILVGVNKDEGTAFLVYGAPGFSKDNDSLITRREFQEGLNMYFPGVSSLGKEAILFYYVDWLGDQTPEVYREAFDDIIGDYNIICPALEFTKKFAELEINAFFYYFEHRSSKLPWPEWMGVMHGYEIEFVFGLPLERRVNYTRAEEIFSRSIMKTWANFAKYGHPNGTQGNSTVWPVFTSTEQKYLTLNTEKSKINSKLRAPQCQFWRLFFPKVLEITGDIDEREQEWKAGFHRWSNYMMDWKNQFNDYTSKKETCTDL
Cholinesterase (Equus caballus, UniProt P81908), sequence (P81908 whole entry): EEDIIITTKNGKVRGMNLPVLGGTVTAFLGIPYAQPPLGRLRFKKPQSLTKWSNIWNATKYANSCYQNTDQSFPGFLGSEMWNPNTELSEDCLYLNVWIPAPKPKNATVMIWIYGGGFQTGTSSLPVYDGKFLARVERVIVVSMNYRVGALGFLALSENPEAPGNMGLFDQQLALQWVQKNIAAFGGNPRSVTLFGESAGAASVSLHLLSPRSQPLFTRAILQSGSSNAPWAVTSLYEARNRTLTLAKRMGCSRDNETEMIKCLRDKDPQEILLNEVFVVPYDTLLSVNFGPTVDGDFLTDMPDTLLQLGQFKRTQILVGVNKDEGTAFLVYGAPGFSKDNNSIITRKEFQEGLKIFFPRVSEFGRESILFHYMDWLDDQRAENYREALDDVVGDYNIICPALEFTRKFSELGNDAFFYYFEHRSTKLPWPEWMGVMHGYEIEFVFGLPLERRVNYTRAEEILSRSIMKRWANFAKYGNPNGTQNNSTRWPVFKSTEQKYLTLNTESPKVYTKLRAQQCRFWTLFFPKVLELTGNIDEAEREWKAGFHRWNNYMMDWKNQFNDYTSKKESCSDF

Structure (SMILES) | IC50 (Acetylcholinesterase [1]) [µM] | IC50 [2] [µM] | IC50 (Butyrylcholinesterase) [µM] | inhibition at 20 µM [3] [%] | Ratio IC50 [4] | IC50 (Cholinesterase [5]) [µM] | IC50 (Acetylcholinesterase [6]) [µM] | IC50 (Cholinesterase [7]) [µM] | IC50 (Acetylcholinesterase [8]) [µM]
CCN(CCCN1C(=O)c2ccccc2C1=O)Cc1ccccc1OC | 0.4 | 4.7 | 9.4 | < 5 | 12.6 | 14.6 | 4.5 | 11.3 | 0.9
CCN(CCCCCCN1C(=O)c2ccccc2C1=O)Cc1ccccc1OC | 0.33 | 11.7 | 14.9 | < 5 | 19.2 | 8.9 | 0.59 | 7.3 | 0.38
CN(CCCCCCN1C(=O)c2ccccc2C1=O)Cc1ccccc1 | 3.9 | 8.3 | 20.7 | < 5 | 8.5 | – | – | 17.9 | 2.1
C#CCN(CCCN1C(=O)c2ccccc2C1=O)Cc1ccccc1OC | 4.1 | 7.6 | 5.3 | < 5 | 0.43 | – | – | 5.8 | 13.5
C#CCN(CCCCN1C(=O)c2ccccc2C1=O)Cc1ccccc1OC | 5.1 | 5.6 | 39 | < 5 | 2.4 | – | – | 8.3 | 3.4
CN(CCN1C(=O)c2ccccc2C1=O)Cc1ccccc1 | 16 | 7.3 | 26.2 | < 5 | 1.4 | – | – | 22.5 | 15.9
CC(C)N1CCN(CCCCCN2C(=O)c3ccccc3C2=O)CC1 | 5.4 | 12.6 | 16.3 | < 5 | 4.4 | – | – | 34.5 | 7.9
CC(C)N1CCN(CCCCCCN2C(=O)c3ccccc3C2=O)CC1 | 6.3 | 13.1 | 27.9 | < 5 | 2.2 | – | – | 19.4 | 8.8
CN(CCCCN1C(=O)c2ccccc2C1=O)Cc1ccccc1 | 4.3 | 4.2 | 8.4 | < 5 | 5.6 | – | – | 14.5 | 2.6
C#CCN(CCCCCN1C(=O)c2ccccc2C1=O)Cc1ccccc1OC | 14 | 6.3 | 44.4 | < 5 | 2.7 | – | – | 26.3 | 9.6
C#CCN[C@@H]1CCc2ccccc21 [RASAGILINE] | – | – | – | – | – | 4.76 | 0.019 | – | –
CCN(CCCCN1C(=O)c2ccccc2C1=O)Cc1ccccc1OC | 0.04 | 9.4 | 18.9 | < 5 | 238 | 12.9 | 0.28 | 31 | 0.13
CCN(CCCCN1C(=O)c2ccccc2C1=O)Cc1ccccc1 | 0.6 | 6.9 | 13.3 | < 5 | 22.8 | 15.3 | 0.68 | 9.8 | 0.43
CCN(CCN1C(=O)c2ccccc2C1=O)Cc1ccccc1 | 13.2 | 8.3 | 16.1 | < 5 | 2.4 | – | – | 21.9 | 9.3
